“And” between values parts separate entries of the source, which are not always exact repeats. Identical values can stand only once. Like-named read-outs stand apart in the source and are kept apart here.
Tests used:
[1] = system: synaptogenic domain of TSP2 and α2δ-1; conditions: co-expressed in HEK-293 cells; cited from earlier work
TSP4 = assay: 3H-gabapentin binding to membranes of tsA-201 cells expressing only TSP4 (control); conditions: 1 experiment in triplicate
Method: Each experiment was carried out in triplicate, and the mean value used for subsequent analysis.
Harvesting of the samples was performed by filtration through GF/B filter papers (Whatman, GE Healthcare) pre-soaked in 0.3% polyethyleneimine solution, in order to reduce non-specific binding to the filter paper. The samples were transferred to the filters by washing the tubes three times with Tris-HCl (100 mM, pH 7.4, Sigma 7–9) using a Brandel Harvester (Brandel). The GF/B filter papers were then cut out and transferred to vials containing 5 ml of scintillant (Liquid scintillant cocktail, Beckman Coulter). Samples were equilibrated for 18 h and then the activity was counted in triplicate in a scintillation counter (Beckman Coulter) for 10 min per sample.

α2δ-1-MIDAS^AAA = assay: [3H]-gabapentin saturation binding to membranes of tsA-201 cells expressing α2δ-1 MIDAS mutant
Method: Cell membrane and DRM fractions were prepared essentially as described previously. Cultured tsA-201 cells were washed twice in ice-cold PBS and then left in ice-cold PBS containing Complete protease inhibitor cocktail (Roche, concentration according to manufacturer’s instructions) for 5 min. Cells were gently washed off the bottom of the flask and pelleted at 2000 × g for 10 min. Pellets were kept on ice if used immediately, or stored at −20 °C until required. For brain membranes, adult male Sprague Dawley rats (200–250 g) were euthanised by CO2 inhalation and then decapitated. The whole brain minus cerebellum was homogenised on ice in a buffer containing the following (in mM): 20 HEPES, pH 7.4, 2 EDTA, EDTA-free protease inhibitor cocktail (Roche, concentration according to manufacturer’s instructions).
For membrane preparation, pellets obtained from cell harvesting, resuspended in ice-cold 10 mM Hepes plus protease inhibitors (pH 7.4), or brain homogenate, were mechanically lysed by 10–15 passages through a 23 gauge needle. Cell debris and non-lysed cells were pelleted for 15 min at 1,000 × g. The supernatant obtained was transferred to a 30 ml thick-walled ultracentrifuge tube (Beckman-Coulter). Membranes were pelleted in an ultracentrifuge (Beckman-Coulter) for 90 min at 60,000 × g, and resuspended as required. Aliquots were used to determine the protein concentration.

TSP4-EGF = assay: 3H-gabapentin binding to TSP4-EGF alone (control); conditions: control experiment, data not shown
[2] = α2δ-1-MIDAS^AAA + TSP4 with EDTA, n = 3 (Fig. 1F)
[3] = α2δ-1-MIDAS^AAA + TSP4 with Mg2+, n = 3 (Fig. 1F)
[4] = α2δ-1-MIDAS^AAA with EDTA, n = 3 (Fig. 1F)

SMILES	effect on co-immunoprecipitation between synaptogenic domain of TSP2 and α2δ-1 [1]	binding to TSP4 alone (TSP4)	nH (α2δ-1-MIDAS^AAA)	mean Bmax (α2δ-1-MIDAS^AAA; [2]) [pmol/mg protein]	nH (α2δ-1-MIDAS^AAA; [2])	mean Bmax (α2δ-1-MIDAS^AAA; [3]) [pmol/mg protein]	nH (α2δ-1-MIDAS^AAA; [3])	mean Bmax (α2δ-1-MIDAS^AAA; [4]) [pmol/mg protein]	nH (α2δ-1-MIDAS^AAA; [4])	Kd (α2δ-1-MIDAS^AAA; α2δ-1-MIDAS^AAA with Mg2+, n = 2 (Fig. 1F), read-out: KD, individual values)	mean Bmax (α2δ-1-MIDAS^AAA; α2δ-1-MIDAS^AAA with Mg2+, n = 2, individual values 0.53, 0.38 (Fig. 1F)) [pmol/mg protein]	binding affinity compared with WT α2δ-1 (α2δ-1-MIDAS^AAA; α2δ-1 MIDAS^AAA (Fig. 1F))	binding to TSP4-EGF alone (TSP4-EGF)
NCC1(CC(=O)O)CCCCC1 [gabapentin]	inhibit co-immunoprecipitation	–	–	–	–	–	–	–	–	–	–	–	–
NCC1(CC(=O)O)CCCCC1 [[^3H]-gabapentin]	–	no direct binding	1.43	0.24 ± 0.02	1.49 ± 0.10	0.37 ± 0.06	1.45 ± 0.05	0.68 ± 0.12	1.33 ± 0.07	117 nM and 190 nM	0.46	affinity similar to WT α2δ-1	no ^3H-gabapentin binding

Reference: article PMC4830977 (Scientific Reports, 2016)
